The test system of this assay is Myo7a+ hair cells and Sox2+ cells in sisomicin-damaged rat cochlear organoids. In words: Rat cochlear organoids after sisomicin damage. It counts as cell-based. On the procedure: On day 0, the cochlear sensory epithelium was dissected and the OC was separated from the modiolus and stria vascularis, as described above, from either Wistar rat pups (P2), Lgr5-GFP mice (P0–P2) or Atoh1-GFP mice (P0–P2). To separate the sensory epithelial layer from underlying mesenchyme and neurons, the OC was placed in a 100 μl drop of Matrisperse Cell Recovery Solution (Corning) for 1 h at RT, then delaminated with the aid of forceps. Gentle enzymatic dissociation of hair cells and supporting cells followed with 100 μl drop of TrypLE (Gibco), 20 min at 37°C, then mechanical trituration in DMEM/F12. The cell suspension was centrifuged for 5 min at 500 g at 4°C and resuspended in DMEM/F12 medium supplemented with B27 and N2 (Invitrogen), EGF (50 ng/ml), bFGF (50 ng/ml), IGF (25 ng/ml), CHIR99021 (GSK-3β inhibitor, 3 μM, Merck), valproic acid (HDAC inhibitor, 1 mM, Sigma), 2-phospho-L-ascorbic acid (280 μM, Stemcell Technologies) and 0.01% ampicillin (Sigma). Cells were plated at 2,000 cells per well on 96 wells plate (Corning Costar; ultra-low attachment, round-bottom) to allow aggregation at 37°C. On day 1, Matrigel (GF-depleted, Corning; 2% stock) was added to a final concentration of 0.18 mg/ml. […]
For staining and imaging, organoids were allowed to adhere ON onto transwell-permeable support membranes (Corning) in 12-well plates coated with 100% Matrigel. […] Compiled Z-projections were processed (FIJI, ver2.0) and hair cells quantified on individual planes with manual cell counter plugin, by evaluation of cytosolic expression and nuclear exclusion of Myo7a. […]
Finally, the regenerative potential of CPD3 was assessed with rat cochlear organoids testing the efficacy of CPD3 to transdifferentiate any remaining supporting cells after ototoxic damage. […] A decrease in Myo7a+ hair cells was detected 7 days following sisomicin damage (Figure 6D). […]

SMILES strings stand for the structures.

For the compound `COc1ccc2c(c1)N1CCC(C)(C)C1=CC(=O)[C@H]2NC(=O)[C@H](C)NC(=O)CCC(F)(F)F` [CPD3], the “Total number of Sox2 positive cells in the organoid” value (after sisomicin damage) was “did not change”. Where the note is “after sisomicin damage, p < 0.001”, the “Number of Myo7a+/Sox2+ hair cells” value is “did increase”. The “Myo7a+ hair cells after sisomicin damage” value (sisomicin 500 μM 2 h at day 20, 7 days culture, vs sisomicin only, p < 0.001) was “significant increase”.

The values above are taken from PMC8414802, “Hair Cell Generation in Cochlear Culture Models Mediated by Novel γ-Secretase Inhibitors” (Frontiers in Cell and Developmental Biology, 2021).
